Values after ≈ are worked out from the molar mass of the structure shown.
Tests used:
[1] = test system: Mycobacterium tuberculosis; assay: Antitubercular activity against dormant Mycobacterium tuberculosis H37Ra after 12 days by XTT-Menadione assay; assay type: functional, organism-based; conditions: 288 h
[2] = Cytotoxicity against human THP1 cells after 5 days by MTT assay; assay type: cell-based, THP-1
[3] = Cytotoxicity against human PANC1 cells after 5 days by MTT assay; assay type: cell-based, PANC-1
[4] = (§1) Cytotoxicity against human A549 cells after 3 days by MTT assay; assay type: cell-based; conditions: human, A549 cells; read-out: MIC
A549 = assay: as §1; assay type: cell-based; conditions: Homo sapiens, A549, 72 h
[5] = (§2) Cytotoxicity against human MCF7 cells after 4 days by MTT assay; assay type: cell-based; conditions: human, MCF7 cells; read-out: MIC
MCF7 = assay: as §2; assay type: cell-based; conditions: Homo sapiens, MCF7, 96 h
[6] = test system: Mycobacterium tuberculosis; assay: Antitubercular activity against dormant Mycobacterium tuberculosis H37Ra at 30 ug after 12 days by XTT-Menadione assay; assay type: functional
[7] = test system: Mycobacterium tuberculosis; assay: Antitubercular activity against dormant Mycobacterium tuberculosis H37Ra at 10 ug after 12 days by XTT-Menadione assay; assay type: functional
[8] = test system: Mycobacterium tuberculosis; assay: Antitubercular activity against dormant Mycobacterium tuberculosis H37Ra at 3 ug after 12 days by XTT-Menadione assay; assay type: functional
[9] = test system: Mycolicibacterium smegmatis; assay: Antitubercular activity against dormant Mycobacterium smegmatis MC2 155 at 30 ug after 12 days by XTT-Menadione assay; assay type: functional, str. MC2 155
[10] = test system: Mycolicibacterium smegmatis; assay: Antitubercular activity against dormant Mycobacterium smegmatis MC2 155 at 10 ug after 12 days by XTT-Menadione assay; assay type: functional, str. MC2 155
[11] = test system: Mycolicibacterium smegmatis; assay: Antitubercular activity against dormant Mycobacterium smegmatis MC2 155 at 3 ug after 12 days by XTT-Menadione assay; assay type: functional, str. MC2 155
Escherichia coli [12] = assay: Antibacterial activity against Escherichia coli at 30 ug after 8 hrs; assay type: functional
Escherichia coli [13] = assay: Antibacterial activity against Escherichia coli at 10 ug after 8 hrs; assay type: functional
Escherichia coli [14] = assay: Antibacterial activity against Escherichia coli at 3 ug after 8 hrs; assay type: functional
Pseudomonas fluorescens [15] = assay: Antibacterial activity against Pseudomonas fluorescens at 30 ug after 8 hrs; assay type: functional
Pseudomonas fluorescens [16] = assay: Antibacterial activity against Pseudomonas fluorescens at 10 ug after 8 hrs; assay type: functional
Pseudomonas fluorescens [17] = assay: Antibacterial activity against Pseudomonas fluorescens at 3 ug after 8 hrs; assay type: functional
Staphylococcus aureus [18] = assay: Antibacterial activity against Staphylococcus aureus at 30 ug after 12 hrs; assay type: functional
Staphylococcus aureus [19] = assay: Antibacterial activity against Staphylococcus aureus at 10 ug after 12 hrs; assay type: functional
Staphylococcus aureus [20] = assay: Antibacterial activity against Staphylococcus aureus at 3 ug after 12 hrs; assay type: functional
Bacillus subtilis [21] = assay: Antibacterial activity against Bacillus subtilis at 30 ug after 12 hrs; assay type: functional
Bacillus subtilis [22] = assay: Antibacterial activity against Bacillus subtilis at 10 ug after 12 hrs; assay type: functional
Bacillus subtilis [23] = assay: Antibacterial activity against Bacillus subtilis at 3 ug after 12 hrs; assay type: functional

Compound `O=C(NN1C(=O)CS[C@@H]1c1ccc([N+](=O)[O-])cc1)c1cnccn1` has an IC50 [1] of 1.47 µg/mL (≈ 4.25 µM), an MIC [1] of 29 µg/mL (≈ 84 µM) and an IC50 ([2]; Homo sapiens, THP-1, 120 h) of 97.7 µg/mL (≈ 283 µM). For the same compound, the MCC at 120 h ([2]; human, THP1 cells, read-out: MIC) was > 100 µg/mL, the IC50 ([3]; Homo sapiens, PANC-1, 120 h) was > 100 µg/mL and the MCC at 120 h ([3]; human, PANC1 cells, read-out: MIC) was > 100 µg/mL. For the same compound, the MCC at 72 h [4] was > 100 µg/mL, the IC50 (A549) was > 100 µg/mL and the MCC at 96 h [5] was > 100 µg/mL. The IC50 (MCF7) was 65.6 µg/mL (≈ 190 µM), the “inhibition (INH)” value [6] was 90.93% and the “inhibition (INH)” value [7] was 66.45%. For the same compound, the “inhibition (INH)” value [8] was 60.59%, the “inhibition (INH)” value [9] was 9.803% and the “inhibition (INH)” value [10] was -31.0588%. For the same compound, the “inhibition (INH)” value [11] was 36.09%, the “inhibition (INH)” value (Escherichia coli [12]) was 9% and the “inhibition (INH)” value (Escherichia coli [13]) was 14.12%. The “inhibition (INH)” value (Escherichia coli [14]) was -6.69%, the “inhibition (INH)” value (Pseudomonas fluorescens [15]) was -21.38% and the “inhibition (INH)” value (Pseudomonas fluorescens [16]) was 13.35%. For the same compound, the “inhibition (INH)” value (Pseudomonas fluorescens [17]) was 6.405%, the “inhibition (INH)” value (Staphylococcus aureus [18]) was -24.9% and the “inhibition (INH)” value (Staphylococcus aureus [19]) was -1.75%. For the same compound, the “inhibition (INH)” value (Staphylococcus aureus [20]) was 21.93%, the “inhibition (INH)” value (Bacillus subtilis [21]) was 8.09% and the “inhibition (INH)” value (Bacillus subtilis [22]) was -4.94%. The “inhibition (INH)” value (Bacillus subtilis [23]) was 16.03%.
